16 compounds from PubChem BioAssay (NCI) can be followed below.

Holding throughout (test): NCI anticancer screen, dose series, 48 h
In experiment [1] the test system is BT-549 breast.
In experiment [2] the test system is NCI-H460 lung.
Experiment [3] has as its system MDA-MB-231 breast.
The test system of experiment [4] is HOP-92 NSCLC.
For experiment [5], the system named is MCF7 breast.
Experiment [6] relates to MALME-3M melanoma.
Experiment [7] has as its system UACC-257 melanoma.
Experiment [8] relates to MOLT-4 leukemia.
Experiment [9] concerns HT29 colon.
The subject of experiment [10] is NCI-H226 lung.

Molecules are shown by their SMILES.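 Compound exposure: 48 hours, 5 concentrations, 96-well plates. GI50 is the concentration that inhibits growth by half. TGI marks complete inhibition of growth.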

`COc1cc(CNc2nc3cc(N)cc(N)c3nc2-c2ccccc2)cc(OC)c1`: the GI50 is 9.7 µM in experiment [1]; 10.5 µM in [2]; 2.08 µM in experiment [3]; 1.15 µM in experiment [4]; 8.34 µM in [5]; 4.86 µM in experiment [6]. Moreover, the GI50 was 3.02 µM in [8] and 8.17 µM in experiment [9]. The TGI is > 100 µM in [1]; > 100 µM in [2]; 6.09 µM in experiment [3]; 3.31 µM in [4]; > 100 µM in [5]; 33.8 µM in experiment [6]. The TGI in experiment [7] is > 100 µM; in experiment [8], > 100 µM; in experiment [9], 44.4 µM.

On to `CC(=O)O[C@H]1C(=O)[C@@]2(C)C([C@H](OC(=O)c3ccccc3)[C@]3(O)C[C@H](OC(=O)[C@H](O)[C@@H](NC(=O)c4ccccc4)c4ccccc4)C(C)=C1C3(C)C)[C@]1(OC(C)=O)CO[C@@H]1C[C@@H]2O` (stereo partly specified), for which the GI50 in [1] is 0.0212 µM; in [2], < 0.005 µM; in [3], 0.0343 µM; in [4] it was 0.054 µM; in experiment [5], < 0.005 µM; in experiment [7] it was > 50 µM. The GI50 in experiment [8] is 0.0152 µM; in experiment [10], 0.0189 µM; in [9], < 0.005 µM. Besides, the TGI in [1], in experiment [2], in [3], in [4], in experiment [5] and in [7] was > 50 µM each time. The TGI in experiment [8] was > 37.2 µM; in experiment [10], > 50 µM.

With `O=C1CC(c2ccccc2)Oc2ccccc21` (stereo unspecified), the TGI is 42.1 µM in [1]; > 100 µM in [2]; 94 µM in experiment [3]; 62.8 µM in experiment [4]; > 100 µM in experiment [5]; > 100 µM in experiment [7]. Also, the figures for the TGI in experiment [8], in experiment [10] and in experiment [9] were 34.4 µM, > 100 µM and 59.7 µM, respectively.

With `CCN(C)c1nc(N(C)CC)c2nc(N(C)CC)nc(N(C)CC)c2n1`, the TGI in experiment [1], in [2], in experiment [3], in experiment [4], in experiment [5] and in experiment [6] was > 100 µM in each case. The TGI in experiment [7], in experiment [8] and in experiment [9] was > 100 µM in each case.

In the case of `COc1ccc(OC)c(/C=C/c2nc(=S)n(-c3ccc(Cl)cc3)[nH]2)c1`, the GI50 in experiment [1] was 9.38 µM; in [2], 4.53 µM; in [3], 14.5 µM; in experiment [4], 3.56 µM; in experiment [5], 4.44 µM; in [6], 70.6 µM. Further, the GI50 in experiment [7] is > 100 µM; in [8], 7.74 µM; in experiment [9], 3.67 µM. The TGI in experiment [1], in [2], in experiment [3], in experiment [4], in experiment [5] and in [6] was > 100 µM throughout. In addition, the TGI in experiment [7], in experiment [8] and in experiment [9] was > 100 µM each time.

Consider `CNCc1cccc2c1OCCOCCOCCN(C)S(=O)(=O)c1ccc(cc1)-c1cnc(N)c(n1)C(=O)N2`, for which the GI50 in [1] was 3.27 µM; in [2] it was 0.868 µM; in experiment [3], 2.28 µM; in [5], 0.0566 µM; in [6] it was 1.53 µM; in experiment [7], 2.69 µM. Also, the GI50 in experiment [8] is 0.41 µM; in experiment [10], 2.76 µM; in [9] it was 1.08 µM. For the same compound, the TGI in experiment [1] was 21.6 µM; in [2], 2.95 µM; in experiment [3] it was 6.44 µM; in experiment [5] it was 17.9 µM; in [6], 3.72 µM; in experiment [7] it was 5.64 µM. Also, the results for the TGI in [8], in experiment [10] and in experiment [9] were 11.8 µM, 6.92 µM and 4.92 µM, respectively.

As for `C[C@]12CC[C@H]3[C@@H](CCC4=CC(=O)CC[C@@]43C)[C@@H]1CC[C@@H]2c1csc(N)n1`, the GI50 in experiment [1] was 6.12 µM; in experiment [2] it was 3.46 µM; in experiment [3], 8.82 µM; in [4], 11 µM; in experiment [5], 3.42 µM; in experiment [7], 2.75 µM. Besides, the GI50 in experiment [8] was 2.5 µM; in [10], 4.61 µM; in [9], 4.41 µM. The TGI amounted to 21.3 µM in experiment [1]; 13.8 µM in experiment [2]; 28.7 µM in experiment [3]; 28.5 µM in experiment [4]; 15.5 µM in experiment [5]; 13 µM in experiment [7]. The TGI was 11.2 µM in experiment [8], 23.7 µM in experiment [10] and 18.3 µM in [9].

Regarding `O=C(NCCNCCO)c1ccc2c(c1)oc1cc3ccccc3c(=O)n12`, the GI50 in [1] was 18.8 µM; in experiment [2] it was 25.4 µM; in [3], 29.8 µM; in [4] it was 37.6 µM; in experiment [5], 31.1 µM; in [6], 19.7 µM. Moreover, the figures for the GI50 in experiment [7], in experiment [8] and in experiment [9] were 19.6 µM, 44.3 µM and 29.4 µM, respectively. The TGI in [1], in experiment [2], in experiment [3], in experiment [4], in experiment [5] and in experiment [6] was > 50 µM throughout. Moreover, the TGI in experiment [7], in experiment [8] and in experiment [9] was > 50 µM each time.

On to `CCN(CC)Cc1cc(Nc2nc(NC3CCC(N(C)C)CC3)c3ccccc3n2)ccc1OC` (stereo unspecified), for which the GI50 in experiment [2] was 5.18 µM; in [3] it was 1.7 µM; in experiment [4] it was 1.63 µM; in experiment [5], 3.83 µM; in [6], 1.61 µM; in experiment [7], 1.82 µM. Besides, the GI50 is 2.34 µM in experiment [8], 3.94 µM in experiment [10] and 2.42 µM in experiment [9]. Besides, the TGI came out at 17.6 µM in [2]; 6.09 µM in [3]; 6.71 µM in experiment [4]; 14.6 µM in [5]; 3.73 µM in [6]; 3.84 µM in [7]. Moreover, the TGI in experiment [8] amounted to 6.9 µM; in [10], 16.8 µM; in experiment [9], 7.11 µM.

As to `CCN(CC)CCCNc1ccc(C)c2sc3ccccc3c(=O)c12`, the GI50 in [1] was 1.83 µM; in experiment [2] it was 0.46 µM; in [3], 0.294 µM; in experiment [4], 1.96 µM; in experiment [5], 0.277 µM; in experiment [6], 0.193 µM. The GI50 in [7] is 0.23 µM; in experiment [8], 0.384 µM; in experiment [9] it was 0.279 µM. Besides, the TGI stood at 11.1 µM in [1]; 1.71 µM in experiment [2]; 0.863 µM in experiment [3]; 16.2 µM in [4]; 1.05 µM in experiment [5]; 0.402 µM in experiment [6]. The TGI in [7] is 0.54 µM; in experiment [8], 1.35 µM; in experiment [9], 1.09 µM.

Turning to `COC(=O)OC1C(O[C@H]2C[C@H]3[C@@H]4CC=C5C[C@@H](O)CC[C@]5(C)[C@H]4CC[C@]3(C)[C@H]2[C@H](C)C(=O)CCC(C)C)OCC(O)C1OC1OCC(O)C(O)C1OC(=O)c1ccc(OC)cc1` (stereo partly specified), the GI50 in experiment [1] is < 0.00275 µM; in [2], 0.00957 µM; in [3], 0.082 µM; in [4] it was 0.0492 µM; in experiment [5] it was 0.0108 µM; in experiment [6], 0.0184 µM. The GI50 is 0.00543 µM in [7], 0.00695 µM in experiment [8] and 0.0415 µM in experiment [9]. Further, the TGI is 3.45 µM in experiment [1]; 0.332 µM in experiment [2]; 4.46 µM in experiment [3]; 1.87 µM in experiment [4]; 0.545 µM in experiment [5]; 0.769 µM in experiment [6]. The values for the TGI in experiment [7], in experiment [8] and in [9] were 0.0562 µM, 0.0178 µM and > 27.5 µM, respectively.

Consider `COc1cc2c(cc1Nc1nc(N3CCc4ccccc43)c3cc[nH]c3n1)N(C(=O)CN(C)C)CC2`, for which the GI50 was 8.38 µM in [1]; 1.29 µM in experiment [2]; 5.86 µM in experiment [3]; 0.48 µM in [5]; 5.03 µM in experiment [6]; 4.25 µM in experiment [7]. Moreover, the GI50 in experiment [8] was 1.88 µM; in [10], 11.3 µM; in [9], 0.364 µM. The TGI came out at 15.7 µM in [1]; 2.79 µM in experiment [2]; 12.7 µM in [3]; 2.09 µM in experiment [5]; 11 µM in experiment [6]; 9.3 µM in [7]. The TGI in [8] is 4.79 µM; in [10], 20.1 µM; in experiment [9], 0.731 µM.

For the compound `Cc1c(C(=N)C(C#N)C#N)c(=N)oc2c1ccc1ccccc12`, the GI50 in experiment [1] is 32.2 µM; in [2], 27.2 µM; in [3], 19.1 µM; in experiment [5], 5.34 µM; in experiment [6] it was 22.3 µM; in experiment [7] it was 28.6 µM. Further, the GI50 is 21.7 µM in experiment [8] and 20.5 µM in experiment [9]. Besides, the TGI in experiment [1] is > 100 µM; in [2], > 100 µM; in experiment [3], > 100 µM; in experiment [5], > 100 µM; in experiment [6], 80.7 µM; in [7] it was > 100 µM. For the same compound, the values for the TGI in experiment [8] and in experiment [9] were > 100 µM and 71.1 µM, respectively.

As for `O=C(Nc1cccc(-n2cc(-c3ccncc3)c(-c3cc(O)cc(Cl)c3)n2)c1)c1ccc(N2CCOCC2)c(C(F)(F)F)c1`, the GI50 was 4.21 µM in experiment [1]; 0.797 µM in [2]; 0.327 µM in experiment [3]; 4.16 µM in [5]; 1.38 µM in experiment [6]; 2.36 µM in experiment [7]. Moreover, the GI50 in experiment [8] was 1.11 µM; in experiment [10] it was 28.5 µM; in experiment [9], 3.03 µM. In addition, the TGI was > 100 µM in experiment [1]; 3.48 µM in experiment [2]; 1.66 µM in [3]; > 100 µM in experiment [5]; 5.19 µM in experiment [6]; 8.48 µM in [7]. In addition, the TGI in experiment [8] is 4.38 µM; in [10], > 100 µM; in experiment [9] it was 11.3 µM.

Turning to `FC(F)(F)Oc1cccc(-c2cc(NCCCCCCNc3cc(-c4cccc(OC(F)(F)F)c4)nc4ccc(N5CCCC5)cc34)c3cc(N4CCCC4)ccc3n2)c1`, the GI50 in [1] was 1.78 µM; in [2], 1.84 µM; in experiment [3], 1.72 µM; in [4], 1.54 µM; in [5], 1.73 µM; in experiment [6], 1.68 µM. The values for the GI50 in experiment [7], in experiment [10] and in [9] were 1.89 µM, 1.86 µM and 2.15 µM, respectively. In addition, the TGI in experiment [1] worked out at 3.72 µM; in [2] it was 3.4 µM; in experiment [3] it was 3.16 µM; in experiment [4], 3.18 µM; in experiment [5], 3.49 µM; in [6], 3.1 µM. Moreover, the results for the TGI in experiment [7], in experiment [10] and in [9] were 3.88 µM, 3.69 µM and 4.35 µM, respectively.

As for `CCNc1nc(O)c(/C=C2\C=Nc3ncccc32)s1`, the GI50 in experiment [1] was 1.66 µM; in experiment [2] it was 3.93 µM; in experiment [3], 4.17 µM; in experiment [4] it was 1.08 µM; in experiment [5] it was 2.55 µM; in [7], 4.17 µM. For the same compound, the GI50 in experiment [8] is 3.21 µM; in experiment [10], 2.83 µM; in experiment [9] it was 4.44 µM. Also, the TGI was 5.17 µM in experiment [1]; 17.8 µM in experiment [2]; > 100 µM in experiment [3]; > 100 µM in experiment [4]; > 100 µM in [5]; 15.5 µM in [7]. The values for the TGI in experiment [8], in experiment [10] and in experiment [9] were 12.6 µM, 28.7 µM and > 100 µM, respectively.
